Key:
[1] = target: T1, maize endosperm AGPase, large subunit variant GGR (Q96G, D161G, A443R; numbering of SEQ ID NO: 20) (Zea mays, UniProt P55241+Q84PF5, A443R/D161G/Q96G); test: Kinetic constants in the absence of 3-PGA, GGR; assay type: biochemical
T1 sequence (P55241 46-516 A443R/D161G/Q96G): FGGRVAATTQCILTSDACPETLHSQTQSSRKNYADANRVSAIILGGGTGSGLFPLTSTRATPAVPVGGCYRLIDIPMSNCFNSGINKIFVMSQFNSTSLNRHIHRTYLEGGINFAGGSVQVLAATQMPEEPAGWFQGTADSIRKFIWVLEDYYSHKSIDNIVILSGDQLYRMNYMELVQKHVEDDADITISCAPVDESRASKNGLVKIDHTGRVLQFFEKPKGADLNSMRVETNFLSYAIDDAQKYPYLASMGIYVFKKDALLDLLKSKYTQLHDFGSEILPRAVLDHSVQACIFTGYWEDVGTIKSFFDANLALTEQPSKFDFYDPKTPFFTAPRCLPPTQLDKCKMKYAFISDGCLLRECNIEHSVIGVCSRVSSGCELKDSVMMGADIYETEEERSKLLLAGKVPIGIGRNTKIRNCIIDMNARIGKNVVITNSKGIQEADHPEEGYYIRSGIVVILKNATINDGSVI
T1 sequence (Q84PF5 1-474): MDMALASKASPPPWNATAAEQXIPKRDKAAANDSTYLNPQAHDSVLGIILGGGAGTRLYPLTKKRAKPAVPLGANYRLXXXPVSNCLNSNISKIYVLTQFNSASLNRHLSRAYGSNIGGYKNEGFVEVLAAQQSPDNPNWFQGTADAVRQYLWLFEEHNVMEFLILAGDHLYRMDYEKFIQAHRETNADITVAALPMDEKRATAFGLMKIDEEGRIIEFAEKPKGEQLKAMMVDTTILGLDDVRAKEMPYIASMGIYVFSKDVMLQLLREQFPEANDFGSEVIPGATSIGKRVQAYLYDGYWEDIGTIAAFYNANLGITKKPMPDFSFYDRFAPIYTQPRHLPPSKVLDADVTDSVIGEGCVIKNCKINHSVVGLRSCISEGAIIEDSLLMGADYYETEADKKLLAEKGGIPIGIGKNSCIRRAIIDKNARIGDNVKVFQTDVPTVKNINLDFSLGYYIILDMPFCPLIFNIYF
Protocol: Reactions were performed for 10 min and terminated by boiling. Blank mixtures contained everything except ATP.
Based on the kinetic results (Table 10) and catalytic properties at 55° C. (Table 10) both D161G and GGR were selected for a more detailed kinetic analysis. […] The GGR mutant was primarily chosen based on its increased catalytic rate at 37° C. and high performance at 55° C. Its high activity in the absence of 3-PGA was also paramount. The first kinetic parameters determined were the Michaelis constants, the catalytic rate (kcat) and the dissociation constant (Kia) for the E-ATP complex, in the absence of 3-PGA. […] For the wt maize enzyme, this activator primarily responds by reducing the Km for both substrates, with little effect on the reaction rate (Boehlein et al., 2013). […] The kinetic mechanism established ATP as the first substrate to bind, thus the activator is no longer necessary for this first step. […] This variant also conditions both heat stability and high activity in the absence of an activator.

[2] = test system: maize endosperm AGPase, heat stable ISM mutants; test: Apparent kinetic constants with 3-PGA, 37° C., ISM mutants collectively; assay type: biochemical, Zea mays; conditions: mutants versus wt maize, in the presence of 3-PGA
Protocol: An endpoint assay was used to determine the rate of the AGPase reaction by coupling the formation of PPi to a decrease in NADH concentration (Boehlein et al., 2008). […] The Michaelis constants (Km) were obtained by varying one substrate in the presence of saturating concentrations of the second substrate. The activation constants were obtained by varying the activator at fixed levels of both substrates. All reactions were performed at 37° C. and mixes were prewarmed before starting the reaction with enzyme. Reactions were terminated by boiling the reaction mixes for 2 minutes followed by development with 200 μl of coupling reagent (25 mM imidazole pH 7.4, 4 mM MgCl2, 1 mM EDTA, 0.2 mM NADH, 0.725 U aldolase, 0.4 U triose phosphate isomerase, 0.6 U glycerophosphate dehydrogenase, 1 mM fructose 6-phosphate and 0.8 μg purified PPi-PFK per reaction). The absorbance at 340 nm was monitored after 30 min and the amount of PPi produced was determined from a standard curve using PPi in complete reaction mixtures lacking AGPase. Blank samples contained complete reaction mixtures without enzyme and the change in absorbance between the blank and the reaction was used to calculate the amount of PPi produced. Reactions were linear with time and enzyme concentration.
The apparent Michaelis constant and maximum velocity of each reaction was calculated from a V vs. S plots using nonlinear regression analysis and the following equation, v=VmaxS/(Km+S), where v is the measured velocity, Vmax is the maximum velocity, S is the substrate concentration. The activation constant (Ka) was obtained using the following equation: V=Vmin+Vmax*(X)/(Ka+X), where Vmin is the velocity in the absence of activator and Vmax is the change in activity from Vmin to the total velocity. X is the activator concentration, Ka is the activation constant. All linear regression was carried out using the software program Prism (Graph Pad, San Diego Calif.).
Each mutant, comprising 1, 2, 3 or 4 changes, was grown in a large scale culture, expressed and purified according to standard procedures (Boehlein et al., 2005). […] Thus, the effects of these mutations on the kinetic constants are minimal. Next, the activation constant, Ka, was determined for each of the mutant enzymes. Here a decrease in the Ka for each of the mutants of approximately 3-6 fold was observed. This property appears to stem from the D161G change, and includes all enzymes which carry this mutation (Table 8). To be certain the effect is the result of the D161G mutation, and not the result of other single mutant changes, Q96R and Q96G were purified and characterized.

[3] = target: T1, maize endosperm AGPase, large subunit variant GGR (Q96G, D161G, A443R; numbering of SEQ ID NO: 20); test: Pi inhibition in the absence of 3-PGA, GGR; assay type: biochemical
Protocol: Next, the kinetics of the GGR mutant were further investigated by following Pi inhibition in the presence and absence of 3-PGA. Experiments were performed by keeping both substrates constant and non-saturating at several fixed concentrations of Pi.
A similar examination of the Pi inhibition was then followed with GGR in the absence of 3-PGA.

Nc1ncnc2c1ncn2[C@@H]1O[C@H](COP(=O)(O)OP(=O)(O)OP(=O)(O)O)[C@@H](O)[C@H]1O [ATP]
kcat ([1]; ATP varied at fixed G-1-P): 72.4 s⁻¹ | Km ([1]; read-out: ATP Km): 100 µM | largest variation in Km [2]: approximately two-fold | ATP Km, fold lower than wt AGPase ([3]; Pi inhibition assay): approximately 40 fold | Km ([3]; read-out: Km (ATP), ATP varied, Pi inhibition, NC): 540 µM

From US9650616B2, “Methods for increasing grain yield” (University of Florida Research Foundation, Inc., priority 2014, dated 2017)
